Data taken from patent publication US6436960B1, “Farnesyl transferase inhibitors having a piperidine structure and process for preparation thereof” (LG Chemical Ltd., priority 1998, dated 2002).

Assays:
Ras farnesyl transferase [1] = molecular target: T1, Ras farnesyl transferase (Homo sapiens, UniProt P49354+P49356); test: in vitro inhibitory activity for Ras farnesyl transferase, H-Ras substrate; type: biochemical; conditions: recombinant Ras farnesyl transferase, H-Ras substrate, tritium-farnesylpyrophosphate, 30 minutes at 37° C.; read-out: H-Ras IC50
T1 construct: made in house

Ras farnesyl transferase [2] = molecular target: T2, Ras farnesyl transferase (Rattus norvegicus, UniProt Q02293+Q04631); test: in vivo (cellular) Ras farnesyl transferase inhibitory activity, Rat2 cells transformed with H-Ras fused with polybasic lysine domain of K-Ras; type: cell-based; conditions: Rat2 cell line transformed with H-Ras substituted with polybasic lysine domain at C-terminus of K-Ras; concentration inhibiting 50% of farnesyl binding; read-out: K-Ras CIC50
T2 construct: endogenous in cells; host or cells: Rat2 fibroblasts transformed with C-Harvey-Ras, or with H-Ras carrying the K-Ras C-terminal polybasic lysine domain
Summary of the method: (§1)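 Transformed Rat2 cells treated with compound in 1% DMSO, labelled with [35S]methionine from 4 h onward for a further 20 h. Ras immunoprecipitated with Y13-259 and resolved by SDS-PAGE and autoradiography. CIC50 is the concentration inhibiting 50% of Ras farnesylation, from farnesylated versus unfarnesylated band intensities.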

Ras farnesyl transferase [3] = molecular target: T2, Ras farnesyl transferase; test: in vivo (cellular) Ras farnesyl transferase inhibitory activity, Rat2 cells expressing C-Harvey-Ras; type: cell-based; conditions: Rat2 cell line expressing C-Harvey-Ras; concentration inhibiting 50% of farnesyl binding of Ras protein; read-out: H-Ras CIC50
Summary of the method: as §1

Ras farnesyl transferase [4] = molecular target: T1, Ras farnesyl transferase; test: in vitro inhibitory activity for Ras farnesyl transferase, K-Ras substrate; type: biochemical; conditions: recombinant Ras farnesyl transferase, K-Ras substrate; read-out: K-Ras IC50

Structure (SMILES) | IC50 (Ras farnesyl transferase [1]) [nM] | IC50 (Ras farnesyl transferase [2]) [nM] | IC50 (Ras farnesyl transferase [3]) [nM] | IC50 (Ras farnesyl transferase [4]) [nM]
CN1CCN(C(=O)c2cn(Cc3cncn3CC3CCN(C(=O)N(C)Cc4ccccc4)CC3)cc2-c2cccc3ccccc23)CC1 [Compound 52] | 2.3 | 10000 to 50000 | 50 | 10
CN1CCN(C(=O)c2cn(Cc3cncn3CC3CCN(C(=O)N(C)C)CC3)cc2-c2cccc3ccccc23)CC1 [Compound 53, 1-{1-[1-(N,N-Dimethylcarbamoyl)piperidin-4-yl]methyl-1H-imidazol-5-yl}methyl-3-(4-methylpiperazin-1-yl)carbonyl-4-(naphthalen-1-yl)-1H-pyrrole] | 3 | 10000 to 50000 | 50 | 8.5
CN1CCN(C(=O)c2cn(Cc3cncn3CC3CCN(C(=O)N4CCCc5ccccc54)CC3)cc2-c2cccc3ccccc23)CC1 [Compound 54, 3-(4-Methylpiperazin-1-yl)carbonyl-4-(naphthalen-1-yl)-1-{1-[1-(1,2,3,4-tetrahydroquinolin-1-ylcarbonyl)piperidin-4-yl]methyl-1H-imidazol-5-yl}methyl-1H-pyrrole] | 11 | 10000 to 50000 | 25 | 40
CN1CCN(C(=O)c2cn(Cc3cncn3CC3CCN(C(=O)N4CCc5ccccc5C4)CC3)cc2-c2cccc3ccccc23)CC1 [Compound 55, 3-(4-Methylpiperazin-1-yl)carbonyl-4-(naphthalen-1-yl)-1-{1-[1-(1,2,3,4-tetrahydroisoquinolin-2-ylcarbonyl)piperidin-4-yl]methyl-1H-imidazol-5-yl}methyl-1H-pyrrole] | 2 | 10000 to 50000 | 25 | 40

Results, then the molecule that gave them:

IC50 (Ras farnesyl transferase [1]) [nM] | IC50 (Ras farnesyl transferase [2]) [nM] | IC50 (Ras farnesyl transferase [3]) [nM] | IC50 (Ras farnesyl transferase [4]) [nM] | Structure (SMILES)
5 | 5000 | 50 | 20 | CN1CCN(C(=O)c2cn(Cc3cncn3CC3CCN(Cc4ccc(-c5ccccc5)cc4)CC3)cc2-c2cccc3ccccc23)CC1 [Compound 56, 1-{1-[1-(4-Biphenylmethyl)piperidin-4-yl]methyl-1H-imidazol-5-yl}methyl-3-(4-methylpiperazin-1-yl)carbonyl-4-(naphthalen-1-yl)-1H-pyrrole]
11 | 10000 | 25 | 10 | CN1CCN(C(=O)c2cn(Cc3cncn3CC3CCN(Cc4ccc(Oc5ccccc5)cc4)CC3)cc2-c2cccc3ccccc23)CC1 [Compound 57, 3-(4-Methylpiperazin-1-yl)carbonyl-4-(naphthalen-1-yl)-1-{1-[1-(4-phenoxybenzyl)piperidin-4-yl]methyl-1H-imidazol-5-yl}methyl-1H-pyrrole]
